From ChEMBL document CHEMBL5096148, “Natural Products with Potential to Treat RNA Virus Pathogens Including SARS-CoV-2” (J Nat Prod, 2021)
In brackets after ≈: the same amount, converted by molar mass.

How the values were obtained:
[1] = test system: Sudan ebolavirus; test: Antiviral activity against SUDV Boniface by high-content image analysis; format: functional
[2] = test system: Middle East respiratory syndrome-related coronavirus; test: Antiviral activity against MERS-CoV jordan N3 by high-content image analysis; format: functional, organism-based
[3] = test system: dengue virus type 2; test: Antiviral activity against DENV2 new Guinea by neutral red uptake analysis; format: functional, organism-based
[4] = test system: Ebolavirus; test: Antiviral activity against EBOV Kikwit by high-content image analysis; format: functional, organism-based; details: Orthoebolavirus
[5] = test system: Marburgvirus; test: Antiviral activity against MARV musoke by high-content image analysis; format: functional, organism-based; details: Orthomarburgvirus
[6] = test system: SARS-CoV; test: Antiviral activity against SARS-Cov urbani by neutral red uptake analysis; format: functional, organism-based; details: Severe acute respiratory syndrome-related coronavirus
[7] = test system: Ebolavirus; test: Antiviral activity against EBOV infected in Vero E6 cells assessed as reduction in virus titer incubated for 5 days by immunofocus assay; format: functional, organism-based; details: Orthoebolavirus, Vero C1008, 120 h
[8] = test system: Ebolavirus; test: Antiviral activity against EBOV infected in HMVEC cells; format: functional, organism-based; details: Orthoebolavirus
[9] = test system: dengue virus type 2; test: Antiviral activity against DENV-2 infected in Baby hamster BHK cells assessed as reduction in virus-induced cytopathic effect; format: functional, organism-based
[10] = test system: Marburgvirus; test: Antiviral activity against Marburg virus; format: functional, organism-based; details: Orthomarburgvirus
[11] = test system: Ebolavirus; test: Antiviral activity against pseudo typed EBOV infected in human A549 cells assessed as inhibition of viral growth; format: functional, organism-based; details: Orthoebolavirus
[12] = test system: Ebolavirus; test: Antiviral activity against pseudo typed EBOV infected in human HEK293T cells assessed as inhibition of viral growth; format: functional, organism-based; details: Orthoebolavirus, HEK-293T
[13] = test system: Ebolavirus; test: Antiviral activity against EBOV infected in human A549 cells assessed as inhibition of viral growth; format: functional, organism-based; details: Orthoebolavirus
[14] = test system: Marburgvirus; test: Antiviral activity against MARV infected in human A549 cells assessed as inhibition of viral growth; format: functional, organism-based; details: Orthomarburgvirus
[15] = test system: Ebolavirus; test: Antiviral activity against EBOV; format: functional, organism-based; details: Orthoebolavirus
[16] = test system: dengue virus type 2; test: Antiviral activity against DENV2 infected in human A549 cells at 25 uM incubated for 24 hrs by plaque assay relative to control; format: functional
[17] = test system: SARS-CoV; test: Antiviral activity against SARS-CoV assessed as reduction in virus-induced cytopathic effect; format: functional, organism-based; details: Severe acute respiratory syndrome-related coronavirus

Nc1ncnc2c([C@@H]3N[C@H](CO)[C@@H](O)[C@H]3O)c[nH]c12
EC50 [1]: 3.4 µM | EC50 [2]: 68.4 µM | EC50 [3]: 32.8 µM | EC50 [4]: 11.8 µM | EC50 [5]: 4.4 µM | EC50 [6]: 57.7 µM

NC(=O)c1nc(F)cnc1O
IC50 [7]: 67 µM | IC90 ([7]; time 5 day): 110 µM

CCC(CC)COC(=O)[C@H](C)N[P@](=O)(OC[C@H]1O[C@@](C#N)(c2ccc3c(N)ncnn23)[C@H](O)[C@@H]1O)Oc1ccccc1
EC50 [8]: 0.06 µM

CN[C@@H]1[C@@H](O)[C@H](O[C@@H]2[C@@H](O)[C@H](O[C@H]3O[C@H]([C@H](C)O)[C@@H](O)[C@H](O)[C@H]3N)[C@@H](N)C[C@H]2N)OC[C@]1(C)O
EC50 [9]: 3 µg/mL (≈ 6.04 µM)

C=C(C)O[C@@H]1[C@@H](OC(C)=O)[C@H](NC(=O)[C@]23CCC(C)(C)C[C@H]2C2=CC[C@@H]4[C@@]5(C)CCC(=O)C(C)(C)[C@@H]5CC[C@@]4(C)[C@]2(C)CC3=O)O[C@H](COC(C)=O)[C@@H]1OC(C)=O
IC50 [10]: 2.29 µM | IC50 [11]: 0.0592 µM

C#CN(CCCC1(C)N=N1)C(=O)[C@]12CCC(C)(C)C[C@H]1C1=CC[C@@H]3[C@@]4(C)CCC(=O)C(C)(C)[C@@H]4CC[C@@]3(C)[C@]1(C)CC2=O
IC50 [10]: 5.52 µM | IC50 [12]: 0.467 µM

O=c1oc2c(O)c(O)cc3c(=O)oc4c(O)c(O)cc1c4c23 [ELLAGIC ACID]
IC50 [13]: 1.4 µM | IC50 [14]: 6.4 µM

C=CCc1ccc(O)c(OC)c1 [EUGENOL]
EC50 [15]: 1.3 µM

C[C@H](CC[C@H](O)[C@](C)(O)CO)[C@H]1CC[C@@]2(C)C3=CC[C@H]4C(C)(C)C(=O)CC[C@]4(C)C3=CC[C@]12C [GANODERMANONTRIOL]
Activity [16]: 25%

O[C@H]1[C@H]2c3cc4c(cc3CN3CCC(=C[C@@H]1O)[C@H]23)OCO4 [LYCORINE]
EC50 [17]: 0.0157 µM
